In patent US6737383B1, “Herbicidal oxadiazolidines” (priority 1999, dated 2004):

Columns and labels:
velvetleaf = assay: Test B pre/postemergence velvetleaf; assay type: in vivo, Abutilon theophrasti
Summary of the method: (§1)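 Herbicidal effect was estimated by eye on a ten-point control scale after plants spent twelve to sixteen days in a greenhouse following soil or foliar treatment. Foliar sprays targeted plants at one to four leaves; all doses were formulated in a non-phytotoxic solvent with surfactant.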

giant foxtail = assay: Test B pre/postemergence giant foxtail; assay type: in vivo, Setaria faberii
Summary of the method: as §1

surinam grass = assay: Test B pre/postemergence surinam grass; assay type: in vivo, Brachiaria decumbens
Summary of the method: as §1

wheat = assay: Test B pre/postemergence wheat; assay type: in vivo, Triticum aestivum
Summary of the method: as §1

wild oat = assay: Test B pre/postemergence wild oat; assay type: in vivo, Avena fatua
Summary of the method: as §1

cocklebur = assay: Test B pre/postemergence cocklebur; assay type: in vivo, Xanthium strumarium
Summary of the method: as §1

corn = assay: Test B pre/postemergence corn; assay type: in vivo, Zea mays
Summary of the method: as §1

bedstraw = assay: Test B pre/postemergence bedstraw; assay type: in vivo, Galium aparine
Summary of the method: as §1

crabgrass = assay: Test B pre/postemergence crabgrass; assay type: in vivo, Digitaria sanguinalis
Summary of the method: as §1

pigweed = assay: Test B pre/postemergence pigweed; assay type: in vivo, Amaranthus retroflexus
Summary of the method: as §1

soybean = assay: Test B pre/postemergence soybean; assay type: in vivo, Glycine max
Summary of the method: as §1

purple nutsedge = assay: Test B pre/postemergence purple nutsedge; assay type: in vivo, Cyperus rotundus
Summary of the method: as §1

morningglory = assay: Test B pre/postemergence morningglory; assay type: in vivo, Ipomoea hederacea
Summary of the method: as §1

rape = assay: Test B pre/postemergence rape; assay type: in vivo, Brassica napus
Summary of the method: as §1

sugar beet = assay: Test B pre/postemergence sugar beet; assay type: in vivo, Beta vulgaris
Summary of the method: as §1

blackgrass = assay: Test B pre/postemergence blackgrass; assay type: in vivo, Alopecurus myosuroides
Summary of the method: as §1

[1] = Preemergence, Rate 62 g/ha, scale of 0 to 10 where 0 is no effect and 10 is complete control
[2] = Preemergence, Rate 125 g/ha, 0 is no effect, 10 is complete control
[3] = Preemergence, Rate 250 g/ha, scale 0 to 10, 0 is no effect, 10 is complete control
[4] = Preemergence, Rate 500 g/ha, scale 0 to 10 (0 no effect, 10 complete control)
[5] = Rate 250 g/ha, Postemergence, scale 0 to 10, 0 is no effect, 10 is complete control
[6] = Rate 500 g/ha, Postemergence, scale 0 to 10
[7] = Postemergence, Rate 125 g/ha, scale of 0 to 10 where 0 is no effect and 10 is complete control
[8] = Rate 62 g/ha, Postemergence, scale of 0 to 10 where 0 is no effect and 10 is complete control

CC(C)N(C(=O)n1oc(=O)n([C@@H](C)c2ccccc2)c1=O)c1ccccc1 [Compound 168]
Velvetleaf plant response rating (velvetleaf; [1]): 0 | Velvetleaf plant response rating (0 to 10 scale) (velvetleaf; [2]): 0 | Velvetleaf plant response rating (velvetleaf; [3]): 0 | Velvetleaf plant response rating (velvetleaf; [4]): 6 | Plant response rating, Velvetleaf (velvetleaf; [5]): 1 | Velvetleaf plant response rating (velvetleaf; [6]): 1 | Giant foxtail plant response rating (giant foxtail; [7]): 0 | Giant foxtail plant response rating (giant foxtail; [1]): 6 | Giant foxtail plant response rating (0 to 10 scale) (giant foxtail; [2]): 8 | Giant foxtail plant response rating (giant foxtail; [3]): 10 | Giant foxtail plant response rating (giant foxtail; [4]): 10 | Giant foxtail plant response rating (giant foxtail; [8]): 0 | Plant response rating, Giant foxtail (giant foxtail; [5]): 1 | Giant foxtail plant response rating (giant foxtail; [6]): 3 | B. signalgrass plant response rating (surinam grass; [7]): 0 | B. signalgrass plant response rating (surinam grass; [1]): 0 | B. signalgrass plant response rating (0 to 10 scale) (surinam grass; [2]): 2 | B. signalgrass plant response rating (surinam grass; [3]): 2 | B. signalgrass plant response rating (surinam grass; [4]): 5 | B. signalgrass plant response rating (surinam grass; [8]): 0 | Plant response rating, B. signalgrass (surinam grass; [5]): 0 | B. signalgrass plant response rating (surinam grass; Rate 500 g/ha, Postemergence, scale 0 to 10, 0 no effect, 10 complete control): 0 | Wheat plant response rating (wheat; [1]): 0 | Wheat plant response rating (0 to 10 scale) (wheat; [2]): 0 | Wheat plant response rating (wheat; [3]): 0 | Wheat plant response rating (wheat; [4]): 0 | Plant response rating, Wheat (wheat; [5]): 0 | Wheat plant response rating (wheat; [6]): 0 | Wild oats plant response rating (wild oat; [1]): 0 | Wild oats plant response rating (0 to 10 scale) (wild oat; [2]): 0 | Wild oats plant response rating (wild oat; [3]): 1 | Wild oats plant response rating (wild oat; [4]): 3 | Plant response rating, Wild oats (wild oat; [5]): 0 | Wild oats plant response rating (wild oat; [6]): 0 | Cocklebur plant response rating (cocklebur; [7]): 0 | Cocklebur plant response rating (cocklebur; [1]): 0 | Cocklebur plant response rating (0 to 10 scale) (cocklebur; [2]): 0 | Cocklebur plant response rating (cocklebur; [3]): 0 | Cocklebur plant response rating (cocklebur; [4]): 0 | Cocklebur plant response rating (cocklebur; [8]): 0 | Plant response rating, Cocklebur (cocklebur; [5]): 2 | Cocklebur plant response rating (cocklebur; [6]): 2 | Corn plant response rating (corn; [7]): 0 | Corn plant response rating (corn; [1]): 0 | Corn plant response rating (0 to 10 scale) (corn; [2]): 0 | Corn plant response rating (corn; [3]): 0 | Corn plant response rating (corn; [4]): 0 | Corn plant response rating (corn; [8]): 0 | Plant response rating, Corn (corn; [5]): 0 | Corn plant response rating (corn; [6]): 0 | Bedstraw plant response rating (bedstraw; [7]): 3 | Bedstraw plant response rating (bedstraw; [1]): 0 | Bedstraw plant response rating (0 to 10 scale) (bedstraw; [2]): 0 | Bedstraw plant response rating (bedstraw; [3]): 0 | Bedstraw plant response rating (bedstraw; [4]): 0 | Bedstraw plant response rating (bedstraw; [8]): 3 | Plant response rating, Bedstraw (bedstraw; [5]): 8 | Crabgrass plant response rating (crabgrass; [7]): 1 | Crabgrass plant response rating (crabgrass; [1]): 0 | Crabgrass plant response rating (0 to 10 scale) (crabgrass; [2]): 3 | Crabgrass plant response rating (crabgrass; [3]): 7 | Crabgrass plant response rating (crabgrass; [4]): 7 | Crabgrass plant response rating (crabgrass; [8]): 0 | Plant response rating, Crabgrass (crabgrass; [5]): 2 | Crabgrass plant response rating (crabgrass; [6]): 9 | Redroot pigweed plant response rating (pigweed; [7]): 0 | Redroot pigweed plant response rating (pigweed; [1]): 0 | Redroot pigweed plant response rating (0 to 10 scale) (pigweed; [2]): 0 | Redroot pigweed plant response rating (pigweed; [3]): 0 | Redroot pigweed plant response rating (pigweed; [4]): 0 | Redroot pigweed plant response rating (pigweed; [8]): 0 | Plant response rating, Redroot pigweed (pigweed; [5]): 0 | Redroot pigweed plant response rating (pigweed; [6]): 0 | Soybean plant response rating (soybean; [7]): 1 | Soybean plant response rating (soybean; [1]): 0 | Soybean plant response rating (0 to 10 scale) (soybean; [2]): 0 | Soybean plant response rating (soybean; [3]): 0 | Soybean plant response rating (soybean; [4]): 0 | Soybean plant response rating (soybean; [8]): 1 | Plant response rating, Soybean (soybean; [5]): 2 | Soybean plant response rating (soybean; [6]): 2 | Nutsedge plant response rating (purple nutsedge; [7]): 0 | Nutsedge plant response rating (purple nutsedge; [1]): 0 | Nutsedge plant response rating (0 to 10 scale) (purple nutsedge; [2]): 0 | Nutsedge plant response rating (purple nutsedge; [3]): 0 | Nutsedge plant response rating (purple nutsedge; [4]): 0 | Nutsedge plant response rating (purple nutsedge; [8]): 0 | Plant response rating, Nutsedge (purple nutsedge; [5]): 0 | Nutsedge plant response rating (purple nutsedge; [6]): 0 | Morningglory plant response rating (morningglory; [7]): 8 | Morningglory plant response rating (morningglory; [1]): 0 | Morningglory plant response rating (0 to 10 scale) (morningglory; [2]): 0 | Morningglory plant response rating (morningglory; [3]): 0 | Morningglory plant response rating (morningglory; [4]): 0 | Morningglory plant response rating (morningglory; [8]): 7 | Plant response rating, Morningglory (morningglory; [5]): 10 | Morningglory plant response rating (morningglory; [6]): 10 | Rape plant response rating (rape; [7]): 0 | Rape plant response rating (rape; [1]): 0 | Rape plant response rating (0 to 10 scale) (rape; [2]): 0 | Rape plant response rating (rape; [3]): 0 | Rape plant response rating (rape; [4]): 0 | Rape plant response rating (rape; [8]): 0 | Plant response rating, Rape (rape; [5]): 0 | Rape plant response rating (rape; [6]): 0 | Sugarbeets plant response rating (sugar beet; [7]): 0 | Sugarbeets plant response rating (sugar beet; [1]): 0 | Sugarbeets plant response rating (0 to 10 scale) (sugar beet; [2]): 0 | Sugarbeets plant response rating (sugar beet; [3]): 4 | Sugarbeets plant response rating (sugar beet; [4]): 7 | Sugarbeets plant response rating (sugar beet; [8]): 0 | Plant response rating, Sugarbeets (sugar beet; [5]): 0 | Sugarbeets plant response rating (sugar beet; [6]): 0 | Blackgrass plant response rating (blackgrass; [7]): 0 | Blackgrass plant response rating (blackgrass; [1]): 0 | Blackgrass plant response rating (0 to 10 scale) (blackgrass; [2]): 1 | Blackgrass plant response rating (blackgrass; [3]): 2 | Blackgrass plant response rating (blackgrass; [4]): 2 | Blackgrass plant response rating (blackgrass; [8]): 0 | Plant response rating, Blackgrass (blackgrass; [5]): 2 | Blackgrass plant response rating (blackgrass; [6]): 7
